Where two headings read alike, the source gives them in different places.
Tests used:
[1] = ELISA of antifungal polypeptide expression in leaves of transgenic potato plants; set-up: species or system potato (Solanum tuberosum var. Russet Burbank); conditions: 3 transgenic potato lines
Method: Leaf samples (20 to 100 mg) were taken from transgenic plants grown to 1 to 2 inches in height. The leaf samples were ground in PBST buffer (15 μl/mg tissue) containing 1 mM KH2PO4, 10 mM Na2HPO4, 137 mM NaCl, 2.7 mM KCl, pH 7.4, and 0.05% Tween-20, and allowed to sit at 4° C. overnight. After centrifugation, 100 μl of the supernatant were used in an ELISA assay. Polyclonal antibodies against Rs-AFP1 polypeptide (SEQ ID NO:18) were prepared by Pocono Rabbit Farm (Pocono, Pa.). Wells of a Nunc Maxi-sorp 96 well plate (Nunc #4-39454) were coated with antibodies against Rs-AFP1 polypeptide by adding 100 μl of antibodies (1 mg IgG/ml) diluted 1:200 in coating buffer containing 1.59 g Na2CO3 and 2.93 g NaHCO3 per liter distilled water, pH 9.6, and incubating at 4° C. overnight. The coating solution was then removed from the wells, which were then washed three times with PBST. One hundred μl of leaf supernatant or appropriately diluted polypeptide standards in PBST supplemented with 0.2% (w/v) BSA, fraction V (Sigma, St. Louis) were added to the wells. The concentration of each polypeptide in extracts from transgenic plants was determined from standard curves constructed using varying amounts of the respective purified polypeptide. […] The optical density at 405 nm was determined using a Thermo-max microplate reader (Molecular Devices, Menlo Park, Calif.). […]

Fusarium culmorum [2] = conditions: F. culmorum
Method: (§1) The antifungal activity of AlyAFP can be expressed as the concentration thereof in μg/ml required to cause 50% inhibition of fungal hyphal growth (IC50). Percent fungal hyphal growth inhibition is defined as 100×the ratio of the average hyphae length in the test sample culture divided by the average hyphae length in the control culture in which buffer is added in place of the polypeptide sample.
(§2) The antifungal activity of AlyAFP was determined by measuring the inhibition of fungal hyphal length of a number of different fungi in the presence of this polypeptide under an inverted microscope. Fungal spores (2×10^4 spores/ml) were allowed to germinate for 5 to 15 hours, depending on the fungus used in the test, in 50 μl of double strength testing medium. […] For experiments on the antagonistic effect of cations, CaCl2 and KCl were added to final concentrations of 1 mM and 50 mM, respectively. This salt-supplemented medium is refered to as “high salt medium,” and the original medium is refered to as “low salt medium.” After spore germination, 50 μl of a filter-sterilized solution of polypeptide in distilled water were added to the testing well containing the germinated spores, and the mixture was incubated for 15 to 24 hours at 24° C. […] Polypeptide concentrations were determined using the BCA protein assay kit obtained from Pierce (Rockford, Ill.).

Verticillium dahliae [3] = test: Antifungal activity: inhibition of fungal hyphal growth (microscopy); type: cell-based; conditions: V. dahliae
Method: as §1, §2

Verticillium dahliae [4] = test: Verticillium wilt disease test on transgenic potato plants expressing the polypeptide; type: in vivo, potato (Solanum tuberosum var. Russet Burbank); conditions: for Disease Severity (%) (44 Days Post Inoc.): average of 3 replicates; for Verticillium wilt resistance conferred to potato plants: expression levels as high as 25 μg/g fresh leaf tissue; for Disease Severity (%) (58 Days Post Inoc.): average of three replicates; for difference in disease progress between expressing lines and control lines: rated at 49, 58, and 64 days post inoculation
Method: Conidia and mycelia of a 2-3 week old culture of virulent Verticillium dahliae were used to inoculate a PDA (potatoes, 200 g/l; Bacto dextrose, 20 g/l; and Bacto agar, 15 g/l ) Petri plate. This culture was allowed to grow at 22° C. for 4-5 days. Conidia were then harvested by washing the culture plate with sterile distilled water and filtering the liquid through two layers of cheesecloth. The conidial spore concentration was determined using a hemacytometer, and adjusted to 1×10^6 conidia/ml with sterile distilled water.
Transgenic and non-transgenic potato plants were grown from stem cuttings under sterile conditions as described above in plastic cups containing 50 mls of PM-agar medium. When plants were about 1-2 inches tall, they were removed from the medium and their roots were dipped in the spore suspension (Joaquim et al. (1991) Phytopathology 81:552-558). The inoculated plants were then transplanted into 6-inch pots containing Metro-Mix 350. After transplanting, each plant received an additional 5mls of the spore suspension on the soil surface around the base of the stem. The pots were placed in a growth chamber under the following conditions: temperature at 20° C., light intensity at 320 μEinstein/sec/cm^2, 12 hr day/12 hr night light cycle, subirrigation with water 2 times/day, 20 minutes soaking each time. Four weeks after inoculation, the plants were scored for disease severity on a scale of 0-100% (Horsfall et al. (1945) Phytopathology 35:655). To develop a disease progress curve over time, plants were rated once a week for at least 8 weeks.
Table 3 summarizes the protein expression level in each of the lines, and the disease severity rating of each individual line in the test determined at 44 days post inoculation. The disease severity rating was the average of 3 replicates. For convenience, the same disease data are also presented as a bar graph in FIG. 11. The order of appearance of each potato line in Table 3 (from top to bottom) and in FIG. 11 (from left to right) is the same.
In this test, disease symptoms appeared in the experimental and control plants at approximately 49 days post inoculation. Disease progress was rated at 49, 58, and 64 days post inoculation. […] The disease severity rating was the average of three replicates. Table 4 summarizes the protein expression level in each of the lines, and the disease severity rating of each individual line determined at 58 days post inoculation. For convenience, the same disease data are also presented as a bar graph in FIG. 12. The order of appearance of each potato line in Table 4 (from top to bottom) and in FIG. 12 (from left to right) is the same.

Fusarium culmorum [5] = conditions: F. culmorum, comparison peptides disclosed in WO 93/05153, cited from earlier work
Verticillium dahliae [6] = conditions: V. dahliae, comparison peptides disclosed in WO 93/05153, cited from earlier work
[7] = high salt medium (1 mM CaCl2, 50 mM KCl)
[8] = 58 days post inoc., average of the 5 expressing lines marked +, vector control 60.0

## AlyAFP: antifungal polypeptide of 50 amino acids obtainable from flowers of Alyssum, SEQ ID NO:2 (RLCERPSGTWSGVCGNNNACRNQCRNLERAEHGSCNYVFPAHKCICYFPC)
[1]
  expression level, medium expressers: 2.6 μg AlyAFP/g fresh leaf tissue
Fusarium culmorum [2]; [7]
  IC50: <10 µg/mL
Fusarium culmorum [2]; low salt medium
  IC50: <2 µg/mL
Verticillium dahliae [3]; [7]
  IC50: <5 µg/mL
Verticillium dahliae [3]; low salt medium
  IC50: <1 µg/mL
Verticillium dahliae [4]; 44 days post inoc., average of the 8 high and medium expressing lines marked +, vector control 39.2
  Average Dis. Sev.: 14.9%
Verticillium dahliae [4]; average of 8 high and medium expressing lines vs average of 3 vector control lines, 44 days
  disease severity less than that of the vector control: 62%
Verticillium dahliae [4]; best high expressing lines #17575 and #17587, 44 days
  disease severity less than that of the vector control: 82%
Verticillium dahliae [4]; low expressing lines (0.9 to 1.1 μg/g fresh leaf tissue)
  disease resistance as compared to the vector controls: did not exhibit any significant level of disease resistance
Verticillium dahliae [4]; potato line 17575, 14.9 μg AFP/g tissue
  Disease Severity (%) (44 Days Post Inoc.): 7.5%
Verticillium dahliae [4]; potato line 17578, 12.7 μg AFP/g tissue
  Disease Severity (%) (44 Days Post Inoc.): 15%
Verticillium dahliae [4]; potato line 17580, 0.9 μg AFP/g tissue
  Disease Severity (%) (44 Days Post Inoc.): 33.3%
Verticillium dahliae [4]; potato line 17581, 9.2 μg AFP/g tissue
  Disease Severity (%) (44 Days Post Inoc.): 24.3%
Verticillium dahliae [4]; potato line 17587, 9.6 μg AFP/g tissue
  Disease Severity (%) (44 Days Post Inoc.): 6.3%
Verticillium dahliae [4]; potato line 17589, 1.1 μg AFP/g tissue
  Disease Severity (%) (44 Days Post Inoc.): 43.8%
Verticillium dahliae [4]; potato line 17592, 2.6 μg AFP/g tissue
  Disease Severity (%) (44 Days Post Inoc.): 11.8%
Verticillium dahliae [4]; potato line 17593, 2.6 μg AFP/g tissue
  Disease Severity (%) (44 Days Post Inoc.): 17.3%
Verticillium dahliae [4]; potato line 17595, 5.2 μg AFP/g tissue
  Disease Severity (%) (44 Days Post Inoc.): 21%
Verticillium dahliae [4]; potato line 17618, 2.6 μg AFP/g tissue
  Disease Severity (%) (44 Days Post Inoc.): 16.3%
Verticillium dahliae [4]; transgenic potato plants
  expression level at which potato plants exhibit resistance to Verticillium wilt: ≥ 2.6 μg/g fresh leaf tissue

## Rs-AFP1: small cysteine-rich antifungal protein isolated from radish seed (WO 93/05153), SEQ ID NO:18 (QKLCERPSGTWSGVCGNNNACKNQCINLEKARHGSCNYVFPAHKCICYFPC)
Fusarium culmorum [5]; high salt
  IC50: 70 µg/mL
Fusarium culmorum [5]; low salt
  IC50: 5 µg/mL
Verticillium dahliae [6]; high salt
  IC50: >100 µg/mL
Verticillium dahliae [6]; low salt
  IC50: 5 µg/mL
Verticillium dahliae [4]; [8]
  Average Dis. Sev.: 59.8%
Verticillium dahliae [4]
  Verticillium wilt resistance conferred to potato plants: did not provide any significant level of Verticillium wilt resistance
  difference in disease progress between expressing lines and control lines: No differences
Verticillium dahliae [4]; potato line 15117, 9.7 μg AFP/g tissue
  Disease Severity (%) (58 Days Post Inoc.): 47.5%
Verticillium dahliae [4]; potato line 15120, 8.0 μg AFP/g tissue
  Disease Severity (%) (58 Days Post Inoc.): 50.0%
Verticillium dahliae [4]; potato line 15124, 26 μg AFP/g tissue
  Disease Severity (%) (58 Days Post Inoc.): 56.3%
Verticillium dahliae [4]; potato line 15143, 18.3 μg AFP/g tissue
  Disease Severity (%) (58 Days Post Inoc.): 78.8%
Verticillium dahliae [4]; potato line 15154, 5.2 μg AFP/g tissue
  Disease Severity (%) (58 Days Post Inoc.): 66.3%

## Rs-AFP2: small cysteine-rich antifungal protein isolated from radish seed (WO 93/05153), SEQ ID NO:19 (QKLCQRPSGTWSGVCGNNNACKNQCIRLEKARHGSCNYVFPAHKCICYFPC)
Fusarium culmorum [5]; high salt
  IC50: 5 µg/mL
Fusarium culmorum [5]; low salt
  IC50: 2 µg/mL
Verticillium dahliae [6]; high salt
  IC50: 50 µg/mL
Verticillium dahliae [6]; low salt
  IC50: 1.5 µg/mL
Verticillium dahliae [4]; [8]
  Average Dis. Sev.: 64.0%
Verticillium dahliae [4]
  Verticillium wilt resistance conferred to potato plants: did not provide any significant level of Verticillium wilt resistance
  difference in disease progress between expressing lines and control lines: No differences
Verticillium dahliae [4]; potato line 13500, 10.8 μg AFP/g tissue
  Disease Severity (%) (58 Days Post Inoc.): 82.5%
Verticillium dahliae [4]; potato line 13501, 25.2 μg AFP/g tissue
  Disease Severity (%) (58 Days Post Inoc.): 76.3%
Verticillium dahliae [4]; potato line 13503, 25.1 μg AFP/g tissue
  Disease Severity (%) (58 Days Post Inoc.): 53.8%
Verticillium dahliae [4]; potato line 13531, 16.2 μg AFP/g tissue
  Disease Severity (%) (58 Days Post Inoc.): 72.5%
Verticillium dahliae [4]; potato line 13532, 17.5 μg AFP/g tissue
  Disease Severity (%) (58 Days Post Inoc.): 35.0%
